“Also recorded” adds a separate entry of the source.
Assays:
[1] = system: seven cell lines (MCF7, HT-1080, U2OS, RKO, H1299, BJ-TERT, BJ-TERT/LT/ST/RAS^V12); test: Lethality across the panel of seven cell lines; type: cell-based; details: summary of Table 1
BJ-TERT/LT/ST/RAS^V12 [2] = details: read-out: EC50 (BJ-TERT/LT/ST/RAS^V12); cited from earlier work
BJ-TERT [3] = details: read-out: EC50 (BJ-TERT); cited from earlier work
BJ-TERT/LT/ST/RAS^V12 [4] = test: Kinetic analysis of induced cell death; type: cell-based; details: treated at the LC90 (30 µM)
BJ-TERT/LT/ST/RAS^V12 [5] = test: Lethality; type: cell-based; details: ratio of LC50 values
[6] = system: caspase 3/7 in BJ-TERT/LT/ST/RAS^V12 cells; test: Caspase 3/7 activation; type: cell-based; details: 28 hours, two-fold 14-point dilution series, Apo-ONE
BJ-TERT [7] = test: Cell death by photograph after 24 hours; type: cell-based; details: compound 27 30 µM, staurosporine 1 µM
[8] = system: caspase 3/7 in BJ-TERT cells; test: Caspase 3/7 activation; type: cell-based; details: 28 hours, two-fold 14-point dilution series, Apo-ONE
HT1080 cells = test: Modulatory profiling: suppression of lethality by biologically active compounds; type: cell-based, human; details: z-VAD-fmk (45 µM) or Boc-D-fmk (50 µM)
BJ-TERT/LT/ST/RAS^V12 [9] = test: Cell death by photograph after 24 hours; type: cell-based; details: compound 27 30 µM, staurosporine 1 µM

## CN1C(=O)C(Cc2nccc3c4ccccc4n(C)c23)C(=O)N(C)C1=O [Compound 8]
[1]
  Lethality across the seven cell lines (in words): slightly more active

## COC(=O)c1ccc(C2c3[nH]c4ccccc4c3CC(C(=O)OC)N2C(=O)CCl)cc1 (centres unmarked) [RSL3]
BJ-TERT/LT/ST/RAS^V12 [2]
  EC50: 0.365 µM
BJ-TERT [3]
  EC50: 2.8 µM

## CC(C)(C)OC(=O)N1CCc2c(n(C(=O)OC(C)(C)C)c3ccccc23)C1CC=O (centres unmarked) [Compound 13]
[1]
  Lethality across the seven cell lines (in words): showed lethality in at least five cell lines

## CCOC(=O)C1c2[nH]c3ccccc3c2CCN1C(=O)OCc1ccccc1 (centres unmarked) [Compound 29]
[1]
  Lethality across the seven cell lines (in words): showed lethality in at least five cell lines

## CCOC(=O)C1c2c(c3ccccc3n2C)CCN1C(=O)OC (centres unmarked) [Compound 27]
BJ-TERT/LT/ST/RAS^V12 [4]
  Time at which compound started to kill cells: ≤ 12 h
  Time to complete cell death: ≤ 24 h
BJ-TERT/LT/ST/RAS^V12 [5]
  Enhancement of lethality compared with compound 1 in BJ-TERT/LT/ST/RAS^V12: four fold enhancement
[1]
  Lethality across the seven cell lines (in words): showed lethality in at least five cell lines; also recorded: effective in inducing cell death in six out of seven cell lines
[6]
  Caspase 3/7 activation in BJ-TERT/LT/ST/RAS^V12: failed to induced caspase 3/7 activation
BJ-TERT [7]
  Cell death in BJ-TERT cells: not BJ-TERT
[8]
  Caspase 3/7 activation in BJ-TERT: does not induce caspase activation
HT1080 cells
  Effect of caspase inhibitors on the compound's lethality: not inhibited
BJ-TERT/LT/ST/RAS^V12 [9]
  Cell death in BJ-TERT/LT/ST/RAS^V12 cells: observed only in BJ-TERT/LT/ST/RAS^V12 cells

## CCOc1ccccc1-n1c(C(C)N2CCN(C(=O)COc3ccc(Cl)cc3)CC2)nc2ccccc2c1=O (centres unmarked) [erastin]
BJ-TERT/LT/ST/RAS^V12 [2]
  EC50: 3.9 µM
BJ-TERT [3]
  EC50: 23.7 µM

## CC(C=O)C1c2c(c3ccccc3n2C(=O)OC(C)(C)C)CCN1C(=O)OC(C)(C)C (centres unmarked) [Compound 20]
[1]
  Lethality across the seven cell lines (in words): showed lethality in at least five cell lines

## CN[C@@H]1C[C@H]2O[C@@](C)([C@@H]1OC)n1c3ccccc3c3c4c(c5c6ccccc6n2c5c31)C(=O)NC4 [Staurosporine, reference compound]
BJ-TERT [7]
  Cell death in BJ-TERT cells: induced cell death
BJ-TERT/LT/ST/RAS^V12 [9]
  Cell death in BJ-TERT/LT/ST/RAS^V12 cells: induced cell death

## CN1C(=O)C(C2NC=Cc3c2[nH]c2ccccc32)C(=O)N(C)C1=O (centres unmarked) [Compound 2a, 5-(2,9-dihydro-1H-pyrido[3,4-b]indol-1-yl)-1,3-dimethylpyrimidine-2,4,6(1H,3H,5H)-trione]
BJ-TERT/LT/ST/RAS^V12 [5]
  Enhancement of lethality compared with compound 1 in BJ-TERT/LT/ST/RAS^V12: two-fold more lethal
[1]
  Lethality across the seven cell lines (in words): showed lethality in at least five cell lines

## COC(OC)C1c2[nH]c3ccccc3c2CCN1C(=O)OCc1ccccc1 (centres unmarked) [Compound 34]
[1]
  Lethality across the seven cell lines (in words): showed lethality in at least five cell lines

## CC(CC1C(=O)N(C)C(=O)N(C)C1=O)C1c2c(c3ccccc3n2C(=O)OC(C)(C)C)CCN1C(=O)OC(C)(C)C (centres unmarked) [Compound 21]
[1]
  Lethality across the seven cell lines (in words): modest to good potency in six cell lines; also recorded: showed lethality in at least five cell lines
